Series [1] relates to Phytophthora infestans. Nature of the series: whole plant or invertebrate. The following applies: for Test J disease control rating: 200 ppm test suspension. In kind it is in vivo.
The test system of series [2] is Fusarium graminearum. In words: whole plant or invertebrate. In kind it is in vivo.
Series [3] has as its system Rhizoctonia oryzae. Nature of the series: Test I: turf brown patch, test suspension sprayed on creeping bent grass seedlings, disease rating. In kind it is in vivo. The conditions noted are these: 200 ppm test suspension; for pest or weed control at 200 ppm: Waitea circinata, in Agrostis stolonifera, 120 h.
Series [4] relates to Botrytis cinerea. In words: Test H: tomato Botrytis, test suspension sprayed on tomato seedlings, disease rating. In kind it is in vivo. The following applies: 200 ppm test suspension; for pest or weed control at 200 ppm: Botrytis cinerea, 120 h.
For series [5], the system named is Septoria nodorum. In words: Test D: wheat glume blotch, test suspension sprayed on wheat seedlings, disease rating. In kind it is in vivo. The conditions noted are these: 200 ppm test suspension; for pest or weed control at 200 ppm: Parastagonospora nodorum, 216 h.
For series [6], the system named is Colletotrichum orbiculare. In words: Test F: cucumber Colletotrichum anthracnose, test suspension sprayed on cucumber seedlings, disease rating. Format: in vivo. The following applies: 200 ppm test suspension; for pest or weed control at 200 ppm: Colletotrichum orbiculare, 144 h.
Series [7] deals with Erysiphe graminis f. sp. tritici. Nature of the series: Test A: wheat powdery mildew, test suspension sprayed on wheat seedlings, disease rating. Format: in vivo. The conditions noted are these: 200 ppm test suspension, 100 = 100% disease control, 0 = no control; for pest or weed control at 200 ppm: Blumeria graminis, 192 h.
Series [8] has as its system Puccinia recondite f sp. tritici. Nature of the series: Test B: wheat leaf rust, test suspension sprayed on wheat seedlings, disease rating.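 For all read-outs here: 200 ppm unless marked * meaning 40 ppm or ** meaning 10 ppm.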 Format: in vivo. The following applies: for pest or weed control at 200 ppm / Test B disease control rating: 200 ppm test suspension.
The subject of series [9] is Alternaria solani. Nature of the series: Test G: tomato early blight, test suspension sprayed on seedlings, disease rating.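 For all read-outs here: 200 ppm unless marked * meaning 40 ppm or ** meaning 10 ppm.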 Format: in vivo. The conditions noted are these: Alternaria solani, 168 h; for pest or weed control at 40 ppm: 40 ppm test suspension (*).
The test system of series [10] is Pythium aphanidermatum. In words: Test L: bluegrass pythium blight, test suspension sprayed on bluegrass seedlings, disease rating.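 For all read-outs here: 200 ppm unless marked * meaning 40 ppm or ** meaning 10 ppm.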 In kind it is in vivo. The conditions noted are these: for pest or weed control at 200 ppm / Test L disease control rating: 200 ppm test suspension.
The test system of series [11] is Septoria tritici. Nature of the series: Test E: wheat leaf blotch, test suspension sprayed on wheat seedlings, disease rating.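 For all read-outs here: 200 ppm unless marked * meaning 40 ppm or ** meaning 10 ppm.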 The conditions noted are these: for pest or weed control at 200 ppm / Test E disease control rating: 200 ppm test suspension. In kind it is in vivo.
The subject of series [12] is Plasmopara viticola. Nature of the series: Test K: grape downy mildew, grape seedlings inoculated and then sprayed, disease rating. Format: in vivo. The conditions noted are these: 200 ppm test suspension.
The test system of series [13] is Sclerotinia sclerotiorum. In words: Test M: cucumber white mold, test suspension sprayed on cucumber seedlings, disease rating. In kind it is in vivo. The following applies: 200 ppm test suspension. The source says: General protocol for preparing test suspensions for Tests A-M: The test compounds were first dissolved in acetone in an amount equal to 3% of the final volume and then suspended at the desired concentration (in ppm) in acetone and purified water (50/50 mix) containing 250 ppm of the surfactant Trem® 014 (polyhydric alcohol esters). The resulting test suspensions were then used in Tests A-M. Spraying a 200 ppm test suspension to the point of run-off on the test plants was the equivalent of an application rate of 500 g/ha.
The test suspension was sprayed to the point of run-off on cucumber seedlings. The following day the seedlings were inoculated with a spore suspension of Sclerotinia sclerotiorum (the causal agent of cucumber white mold) and incubated in saturated atmosphere at 24° C. for 72 h, and then moved to a growth chamber at 24° C. for 3 additional days, after which time disease ratings were made.
Results for Tests A-M are given in Table A. In the table, a rating of 100 indicates 100% disease control and a rating of 0 indicates no disease control (relative to the controls). A dash (-) indicates no test results. All results are for 200 ppm test suspension except where followed by “*” which indicates 40 ppm or by “**” which indicates 10 ppm.

The mark [14] stands for this setting: Phytophthora infestans, in Solanum lycopersicum, 120 h, read-out: Test J disease control rating.
Where [15] appears, read: Fusarium graminearum, in Triticum aestivum, 192 h, read-out: Test C disease control rating.

As for `CC(C)Nc1nccc(-c2c(-c3ccc(F)cc3)nn3c2CCCC3)n1` [Compound 8, 4-[2-(4-fluorophenyl)-4,5,6,7-tetrahydropyrazolo[1,5-a]pyridin-3-yl]-N-(1-methylethyl)-2-pyrimidinamine], the melting point fell in the range of 178 to 180 °C. Further, the pest or weed control at 200 ppm in series [1] (setting [14]) was determined as 100%. In [2] (setting [15]), the pest or weed control at 200 ppm stood at 100%. The same compound registered a pest or weed control at 200 ppm in series [3] of 62%. The compound further returned a pest or weed control at 200 ppm in series [4] of 97%. The pest or weed control at 200 ppm in series [5] turned out to be 100%. The pest or weed control at 200 ppm in series [6] came to 99%. The same compound showed a pest or weed control at 200 ppm in series [7] of 81%. Besides, the pest or weed control at 200 ppm in [8] (Puccinia, 192 h) was 99%. Besides, in [9], the pest or weed control at 40 ppm is 99%. The compound further gave a pest or weed control at 200 ppm in series [10] (Pythium aphanidermatum, 120 h) of 100%. In series [11] (Zymoseptoria tritici, 504 h), this compound displayed a pest or weed control at 200 ppm of 100%.

For `Fc1ccc(-c2nn3c(c2-c2ccnc(NC4CC4)n2)CCCC3)cc1` [Compound 12, N-cyclopropyl-4-[2-(4-fluorophenyl)-4,5,6,7-tetrahydropyrazolo[1,5-a]pyridin-3-yl]-2-pyrimidinamine], the melting point lay within 164 to 165 °C. For the same compound, the pest or weed control at 200 ppm in [1] (setting [14]) turned out to be 100%. Also, in series [2] (setting [15]), the pest or weed control at 200 ppm worked out at 100%. In [3], this compound showed a pest or weed control at 200 ppm of 64%. The compound further had a pest or weed control at 200 ppm in series [4] of 98%. This compound yielded a pest or weed control at 200 ppm in [5] of 99%. For the same compound, the pest or weed control at 200 ppm in series [6] was determined as 94%. In addition, in [7], the pest or weed control at 200 ppm stood at 97%. Also, the pest or weed control at 200 ppm in [8] (Puccinia, 192 h) turned out to be 99%. In addition, the “Test K disease control rating” value in series [12] was found to be 0%. This compound displayed a pest or weed control at 200 ppm in series [10] (Pythium aphanidermatum, 120 h) of 100%. This compound came in with a pest or weed control at 200 ppm in series [11] (Zymoseptoria tritici, 504 h) of 100%.

On to `CC(C)Nc1nccc(-c2c(-c3ccc(F)cc3)nn3c2COCC3)n1` [Compound 107, 4-[2-(4-fluorophenyl)-6,7-dihydro-4H-pyrazolo[5,1-c][1,4]oxazin-3-yl]-N-(1-methylethyl)-2-pyrimidinamine], for which the melting point was in the range of 144 to 146 °C. Besides, in series [1] (setting [14]), the pest or weed control at 200 ppm worked out at 100%. Also, the pest or weed control at 200 ppm in series [2] (setting [15]) was 99%. In series [3], this compound displayed a pest or weed control at 200 ppm of 80%. The pest or weed control at 200 ppm in series [4] came out at 90%. The pest or weed control at 200 ppm in series [5] worked out at 99%. The compound further yielded a pest or weed control at 200 ppm in [6] of 99%. In series [7], this compound gave a pest or weed control at 200 ppm of 92%. Further, in series [8] (Puccinia, 192 h), the pest or weed control at 200 ppm was 99%. In series [9], this compound displayed a pest or weed control at 40 ppm of 99%. The compound also yielded a pest or weed control at 200 ppm in series [10] (Pythium aphanidermatum, 120 h) of 100%. In series [11] (Zymoseptoria tritici, 504 h), this compound yielded a pest or weed control at 200 ppm of 100%.

Compound `Fc1ccc(-c2nn3c(c2-c2ccnc(NC4CC4)n2)CCCN3)cc1` [Compound 131, N-cyclopropyl-4-[2-(4-fluorophenyl)-4,5,6,7-tetrahydropyrazolo[1,5-b]pyridazin-3-yl]-2-pyrimidinamine] yielded a melting point of 184 to 187 °C. The pest or weed control at 200 ppm in series [1] (setting [14]) was 97%. Besides, the pest or weed control at 200 ppm in series [2] (setting [15]) is 100%. Besides, the pest or weed control at 200 ppm in series [3] came out at 57%. Besides, in [4], the pest or weed control at 200 ppm was 9%. This compound also returned a pest or weed control at 200 ppm in series [5] of 87%. The pest or weed control at 200 ppm in [6] stood at 58%. Further, in [7], the pest or weed control at 200 ppm was 96%. For the same compound, in [8] (Puccinia, 192 h), the pest or weed control at 200 ppm stood at 100%. Moreover, the pest or weed control at 200 ppm in series [9] (200 ppm test suspension) was determined as 81%. Further, the “Test K disease control rating” value in series [12] is given as 0%. For the same compound, in [10] (Pythium aphanidermatum, 120 h), the pest or weed control at 200 ppm turned out to be 100%.

Take `CC(CO)Nc1nccc(-c2c(-c3ccc(F)cc3)nn3c2CCCN3)n1` (centres unmarked) [Compound 132, 2-[[4-[2-(4-fluorophenyl)-4,5,6,7-tetrahydropyrazolo[1,5-b]pyridazin-3-yl]-2-pyrimidinyl]amino]-1-propanol]: the melting point lay within 165 to 167 °C. For the same compound, in series [1] (setting [14]), the pest or weed control at 40 ppm was 65%. Also, the pest or weed control at 40 ppm in series [2] (setting [15]) stood at 0%. In addition, the pest or weed control at 200 ppm in series [3] came out at 0%. For the same compound, the pest or weed control at 200 ppm in [4] worked out at 0%. In [5], this compound gave a pest or weed control at 200 ppm of 0%. In series [6], this compound displayed a pest or weed control at 200 ppm of 0%. Also, the pest or weed control at 200 ppm in [7] turned out to be 66%. In series [8] (Puccinia, 192 h, 40 ppm test suspension (*)), this compound came in with a pest or weed control at 40 ppm of 88%. This compound displayed a pest or weed control at 40 ppm in series [9] of 0%. In addition, in series [10] (Pythium aphanidermatum, 120 h, 40 ppm test suspension (*)), the pest or weed control at 40 ppm worked out at 100%. For the same compound, the pest or weed control at 40 ppm in series [11] (Zymoseptoria tritici, 504 h, 40 ppm test suspension (*)) came to 0%.

As to `COCC(C)Nc1nccc(-c2c(-c3ccc(F)cc3)nn3c2CCCC3)n1` (centres unmarked) [compound 1], the “Test J disease control rating” value in series [1] is on record as 100%. Moreover, in [13], the “Test M disease control rating” value is 99%. Further, the “Test C disease control rating” value in [2] (200 ppm test suspension) is 100%. Further, the “Test I disease control rating” value in [3] was found to be 41%. Further, in [4], the “Test H disease control rating” value is given as 91%. Further, the “Test D disease control rating” value in series [5] is on record as 98%. For the same compound, in series [6], the “Test F disease control rating” value worked out at 96%. Further, the “Test A disease control rating” value in [7] is recorded as 94%. Moreover, in [8], the “Test B disease control rating” value came to 100%. Further, in [12], the “Test K disease control rating” value turned out to be 0%. For the same compound, in [10], the “Test L disease control rating” value turned out to be 100%. In addition, in [11], the “Test E disease control rating” value was found to be 98%.

As for `CCC(C)Nc1nccc(-c2c(-c3ccc(F)cc3)nn3c2CCCC3)n1` (centres unmarked) [compound 2], the “Test J disease control rating” value in series [1] is listed as 47%. Also, in series [13], the “Test M disease control rating” value turned out to be 0%. Further, the “Test I disease control rating” value in [3] stood at 31%. Besides, in [4], the “Test H disease control rating” value amounted to 92%. For the same compound, in series [5], the “Test D disease control rating” value is 98%. In addition, in series [6], the “Test F disease control rating” value worked out at 85%. For the same compound, the “Test A disease control rating” value in [7] is on record as 0%. For the same compound, the “Test B disease control rating” value in [8] was 98%. Also, the “Test K disease control rating” value in series [12] amounted to 0%. Moreover, the “Test L disease control rating” value in series [10] stood at 100%. The “Test E disease control rating” value in series [11] turned out to be 97%.

The record behind these values is patent US8288375B2, “Fungicidal bicyclic pyrazoles” (E.I. du Pont de Nemours and Company, priority 2007, dated 2012).
